# Measured values reported in ChEMBL document CHEMBL1201862, “PubChem BioAssay data set” (2004).
# Activity calls are given as the source filed them.
# How the values were obtained:
# [1] = biological target: G-protein coupled receptor 35 (Homo sapiens, UniProt Q9HC97); test: GPR35 antagonists blocking zaprinast-driven arrestin recruitment, primary screen, imaging, U2OS, beta-arrestin-GFP, zaprinast agonist (AID 2058); format: functional;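 also: antagonist potency meaning inhibition of agonist-induced arrestin redistribution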
# [2] = tested on: Streptococcus sp. 'group A'; test: growth inhibition of control SK(-) GAS strain, dose response, counter-screen for streptokinase expression inhibitor project, luminescence, kanamycin, BacTiterGlo, confirmation (AID 1900); format: functional, organism-based
# Streptokinase A = biological target: T1, Streptokinase A (Streptococcus pyogenes serotype M1, UniProt P10520); test: S. pyogenes streptokinase expression inhibitors, potency, dose response, plasminogen activation absorbance, OD405 (AID 1914); format: functional, Streptococcus pyogenes M1 GAS;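 also: secreted streptokinase activity via plasminogen activation per viability signal from cell pellet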
# T1 sequence (P10520 whole entry): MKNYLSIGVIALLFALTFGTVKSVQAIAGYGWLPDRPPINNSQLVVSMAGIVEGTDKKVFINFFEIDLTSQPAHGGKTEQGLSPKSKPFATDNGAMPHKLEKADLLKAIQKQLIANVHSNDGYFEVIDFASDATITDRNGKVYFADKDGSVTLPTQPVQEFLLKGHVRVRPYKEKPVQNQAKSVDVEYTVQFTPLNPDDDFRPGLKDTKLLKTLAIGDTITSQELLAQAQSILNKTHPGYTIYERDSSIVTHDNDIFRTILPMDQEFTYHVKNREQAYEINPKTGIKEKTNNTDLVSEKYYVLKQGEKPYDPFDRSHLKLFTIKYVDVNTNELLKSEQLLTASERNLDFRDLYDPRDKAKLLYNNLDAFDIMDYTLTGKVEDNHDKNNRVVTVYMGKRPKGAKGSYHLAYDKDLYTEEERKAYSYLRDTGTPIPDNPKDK
# Streptococcus = test: Group A Streptococcus viability loss, dose response, counter-screen for streptokinase expression inhibitor project, luminescence, BacTiterGlo (AID 1915); format: functional, organism-based;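 also: potency for reduction of bacterial viability or growth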
# [3] = biological target: T2, Short transient receptor potential channel 4 (Mus musculus, UniProt Q9QUQ5); test: TRPC4 positive allosteric modulators, dose response, cell-based, HEK293 TRPC4/mu-opioid, Fluo-4 calcium, EC20 DAMGO (AID 434941); format: functional
# T2 sequence (Q9QUQ5 whole entry): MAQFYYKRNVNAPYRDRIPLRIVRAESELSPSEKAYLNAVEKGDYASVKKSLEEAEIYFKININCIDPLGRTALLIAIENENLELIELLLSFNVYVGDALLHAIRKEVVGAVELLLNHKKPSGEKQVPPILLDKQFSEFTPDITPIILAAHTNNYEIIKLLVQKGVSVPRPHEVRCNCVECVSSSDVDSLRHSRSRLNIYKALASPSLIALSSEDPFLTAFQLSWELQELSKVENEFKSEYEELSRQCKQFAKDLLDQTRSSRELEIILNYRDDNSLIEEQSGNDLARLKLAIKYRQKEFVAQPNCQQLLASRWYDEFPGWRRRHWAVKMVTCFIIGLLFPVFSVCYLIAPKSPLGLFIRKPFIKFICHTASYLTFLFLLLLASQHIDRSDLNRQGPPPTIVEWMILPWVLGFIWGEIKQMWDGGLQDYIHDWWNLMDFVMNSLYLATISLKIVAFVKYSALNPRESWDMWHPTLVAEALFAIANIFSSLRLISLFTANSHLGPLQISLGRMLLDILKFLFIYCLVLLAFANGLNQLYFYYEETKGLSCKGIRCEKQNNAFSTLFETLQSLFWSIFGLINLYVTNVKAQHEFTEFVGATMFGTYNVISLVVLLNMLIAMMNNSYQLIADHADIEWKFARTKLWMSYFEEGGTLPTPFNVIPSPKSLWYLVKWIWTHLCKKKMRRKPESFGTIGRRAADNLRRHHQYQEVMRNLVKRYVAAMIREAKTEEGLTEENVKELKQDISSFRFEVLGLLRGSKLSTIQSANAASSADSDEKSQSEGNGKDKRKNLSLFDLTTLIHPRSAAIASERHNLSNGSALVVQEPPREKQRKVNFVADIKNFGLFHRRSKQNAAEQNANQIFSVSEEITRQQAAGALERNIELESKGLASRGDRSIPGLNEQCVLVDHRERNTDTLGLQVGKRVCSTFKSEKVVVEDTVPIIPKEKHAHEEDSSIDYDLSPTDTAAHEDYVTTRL
# Large T antigen = Large T antigen (Simian virus 40, UniProt P03070); format: functional, Betapolyomavirus macacae;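 also: Confirmatory-stage PubChem screen for compounds that inhibit SV40 T antigen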
# [4] = biological target: T3, Mannose-6-phosphate isomerase (Homo sapiens, UniProt P34949); test: human PMI inhibitors, high substrate, primary screen, biochemical, fluorescence intensity, high mannose 6-phosphate (AID 1220)
# T3 sequence (P34949 whole entry): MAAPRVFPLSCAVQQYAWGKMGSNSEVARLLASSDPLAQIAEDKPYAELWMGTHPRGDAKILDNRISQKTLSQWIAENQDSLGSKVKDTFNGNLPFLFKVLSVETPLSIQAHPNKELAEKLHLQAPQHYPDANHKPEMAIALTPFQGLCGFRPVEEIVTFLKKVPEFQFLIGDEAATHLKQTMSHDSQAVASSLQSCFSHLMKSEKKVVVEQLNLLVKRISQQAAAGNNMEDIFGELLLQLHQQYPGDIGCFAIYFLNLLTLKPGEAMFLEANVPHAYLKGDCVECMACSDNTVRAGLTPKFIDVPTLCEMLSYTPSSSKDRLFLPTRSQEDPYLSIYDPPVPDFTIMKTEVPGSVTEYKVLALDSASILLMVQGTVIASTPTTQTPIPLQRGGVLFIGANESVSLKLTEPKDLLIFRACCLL
# [5] = biological target: T3, Mannose-6-phosphate isomerase; test: PMI enzyme inhibitors, confirmation, biochemical, fluorescence intensity (AID 1535)
# [6] = biological target: Glucose-6-phosphate 1-dehydrogenase (Homo sapiens, UniProt P11413); test: human G6PD enzyme inhibitors, dose response, selectivity assay for P. falciparum G6PD inhibitor project, biochemical, fluorescence (AID 504792); format: functional
# Phosphomannomutase 2 = Phosphomannomutase 2 (Homo sapiens, UniProt O15305); test: Counter screen SAR assay for PMM2 inhibitors via a fluorescence intensity assay. [Related pubchem assays (depositor defined):AID1545, AID1574]
# [7] = biological target: Eukaryotic translation initiation factor 4E (Mus musculus, UniProt P63073); test: eIF4E–eIF4G protein interaction inhibitors, dose response, biochemical, TR-FRET (AID 855); format: functional;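 also: potency for disrupting eIF4E binding to eIF4GI seen as loss of FRET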
# Vero = test: cells; format: functional; details: Chlorocebus sabaeus
# [8] = biological target: T4, Eukaryotic translation initiation factor 4H (Homo sapiens, UniProt Q15056); test: human eIF4H binding inhibitors, primary screen, translation initiation inhibitor project, biochemical, uHTS, fluorescence polarization (AID 2012)
# [9] = biological target: T5, Polyadenylate-binding protein 1 (Homo sapiens, UniProt P11940); test: PABP poly(A) RNA binding inhibitors, primary screen, biochemical, fluorescence polarization, uHTS (AID 2014)
# [10] = biological target: T4, Eukaryotic translation initiation factor 4H; test: eIF4H inhibition in translation initiation, SAR follow-up (AID 435011); format: functional
# [11] = biological target: T5, Polyadenylate-binding protein 1; test: PABP inhibition in translation initiation, SAR follow-up (AID 435018); format: functional
# Protein Rev = Protein Rev (Human immunodeficiency virus type 1 group M subtype B (isolate HXB2)(HIV-1), UniProt P04618); test: inhibitors of Rev binding to RRE RNA, dose response, biochemical, fluorescence polarization, HIV-1 (AID 434976); set-up: species or system Human immunodeficiency virus 1
# [12] = biological target: Female germline-specific tumor suppressor gld-1 (Caenorhabditis elegans, UniProt Q17339); test: inhibitors of GLD-1 binding to TGE RNA, dose response, biochemical, fluorescence polarization, C. elegans (AID 2802);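 also: fluorescence polarization of labeled TGE RNA bound by purified gld-1 protein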
# [13] = biological target: G-protein coupled receptor 55 (Homo sapiens, UniProt Q9Y2T6); test: GPR55 agonists via beta-arrestin recruitment, primary screen, imaging, U2OS cells, beta-arrestin-GFP redistribution (AID 1961); format: functional
# Sequence of G-protein coupled receptor 55 (Q9Y2T6 whole entry): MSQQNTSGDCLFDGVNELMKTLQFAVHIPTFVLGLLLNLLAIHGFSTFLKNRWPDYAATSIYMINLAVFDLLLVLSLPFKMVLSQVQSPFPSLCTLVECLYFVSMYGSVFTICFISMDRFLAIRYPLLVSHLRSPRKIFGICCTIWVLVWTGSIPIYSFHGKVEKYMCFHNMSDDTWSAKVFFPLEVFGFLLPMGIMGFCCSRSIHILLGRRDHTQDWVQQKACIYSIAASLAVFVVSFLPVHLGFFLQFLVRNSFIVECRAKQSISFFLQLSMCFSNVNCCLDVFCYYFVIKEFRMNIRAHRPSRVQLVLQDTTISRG
# T5 sequence (P11940 whole entry): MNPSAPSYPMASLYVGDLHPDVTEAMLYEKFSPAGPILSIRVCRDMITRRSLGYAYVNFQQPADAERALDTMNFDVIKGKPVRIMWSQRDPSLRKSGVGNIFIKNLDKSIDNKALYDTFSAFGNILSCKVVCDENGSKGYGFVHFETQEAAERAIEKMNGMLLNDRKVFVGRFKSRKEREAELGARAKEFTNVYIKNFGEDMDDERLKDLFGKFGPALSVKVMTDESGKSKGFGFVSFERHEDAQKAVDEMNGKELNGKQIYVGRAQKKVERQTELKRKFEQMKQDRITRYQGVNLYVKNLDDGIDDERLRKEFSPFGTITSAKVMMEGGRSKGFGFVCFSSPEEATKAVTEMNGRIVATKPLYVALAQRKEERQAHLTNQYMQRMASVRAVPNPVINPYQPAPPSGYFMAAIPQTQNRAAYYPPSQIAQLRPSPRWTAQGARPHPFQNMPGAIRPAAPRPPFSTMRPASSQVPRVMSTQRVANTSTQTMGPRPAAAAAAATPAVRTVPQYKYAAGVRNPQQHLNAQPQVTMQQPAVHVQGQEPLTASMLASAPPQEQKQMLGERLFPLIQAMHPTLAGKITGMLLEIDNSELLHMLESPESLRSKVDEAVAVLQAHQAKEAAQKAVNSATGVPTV
# Sequence of Protein Rev (P04618 whole entry): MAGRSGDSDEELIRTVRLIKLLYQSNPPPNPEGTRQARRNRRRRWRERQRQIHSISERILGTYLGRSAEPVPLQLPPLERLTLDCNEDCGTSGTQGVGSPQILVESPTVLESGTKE
# Sequence of Female germline-specific tumor suppressor gld-1 (Q17339 whole entry): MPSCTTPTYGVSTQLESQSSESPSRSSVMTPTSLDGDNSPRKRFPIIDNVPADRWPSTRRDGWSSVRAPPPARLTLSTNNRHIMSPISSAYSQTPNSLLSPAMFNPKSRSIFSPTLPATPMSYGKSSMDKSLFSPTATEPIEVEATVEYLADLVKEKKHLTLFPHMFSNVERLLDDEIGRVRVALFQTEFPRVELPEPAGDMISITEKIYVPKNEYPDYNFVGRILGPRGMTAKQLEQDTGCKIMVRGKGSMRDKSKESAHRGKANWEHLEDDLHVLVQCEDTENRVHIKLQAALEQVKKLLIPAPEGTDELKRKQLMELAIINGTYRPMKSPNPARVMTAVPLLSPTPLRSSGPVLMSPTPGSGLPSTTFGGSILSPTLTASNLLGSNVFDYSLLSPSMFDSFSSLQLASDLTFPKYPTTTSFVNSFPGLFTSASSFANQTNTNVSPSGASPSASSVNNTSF
# Sequence of Eukaryotic translation initiation factor 4E (P63073 whole entry): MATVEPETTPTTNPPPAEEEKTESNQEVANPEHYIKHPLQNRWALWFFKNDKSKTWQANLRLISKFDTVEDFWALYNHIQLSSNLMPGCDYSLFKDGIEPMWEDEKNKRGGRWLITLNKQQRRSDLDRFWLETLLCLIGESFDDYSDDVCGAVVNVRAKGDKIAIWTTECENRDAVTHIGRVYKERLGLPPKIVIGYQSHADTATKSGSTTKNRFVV
# Sequence of Glucose-6-phosphate 1-dehydrogenase (P11413 whole entry): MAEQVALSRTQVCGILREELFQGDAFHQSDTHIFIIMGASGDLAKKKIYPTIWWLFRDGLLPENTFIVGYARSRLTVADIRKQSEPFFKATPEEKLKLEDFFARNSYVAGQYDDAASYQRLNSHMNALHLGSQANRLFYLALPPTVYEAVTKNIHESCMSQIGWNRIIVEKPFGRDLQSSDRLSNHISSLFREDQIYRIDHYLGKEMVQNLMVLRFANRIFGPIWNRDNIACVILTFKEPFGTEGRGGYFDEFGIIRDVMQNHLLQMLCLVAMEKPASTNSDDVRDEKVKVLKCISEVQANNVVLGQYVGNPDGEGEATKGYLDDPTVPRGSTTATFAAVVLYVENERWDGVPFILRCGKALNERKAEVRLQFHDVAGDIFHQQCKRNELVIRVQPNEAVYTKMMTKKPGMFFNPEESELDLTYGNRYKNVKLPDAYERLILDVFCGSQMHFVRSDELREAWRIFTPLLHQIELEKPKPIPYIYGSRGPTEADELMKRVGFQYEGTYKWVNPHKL
# Sequence of G-protein coupled receptor 35 (Q9HC97 whole entry): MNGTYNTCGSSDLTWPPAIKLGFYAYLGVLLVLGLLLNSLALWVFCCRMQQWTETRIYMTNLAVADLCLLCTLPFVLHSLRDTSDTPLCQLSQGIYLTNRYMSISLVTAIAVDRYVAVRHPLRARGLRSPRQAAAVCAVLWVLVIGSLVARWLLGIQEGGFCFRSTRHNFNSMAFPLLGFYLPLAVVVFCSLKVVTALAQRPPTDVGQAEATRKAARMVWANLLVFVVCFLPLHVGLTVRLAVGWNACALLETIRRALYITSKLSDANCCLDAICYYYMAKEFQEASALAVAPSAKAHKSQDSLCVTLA
# Sequence of Phosphomannomutase 2 (O15305 whole entry): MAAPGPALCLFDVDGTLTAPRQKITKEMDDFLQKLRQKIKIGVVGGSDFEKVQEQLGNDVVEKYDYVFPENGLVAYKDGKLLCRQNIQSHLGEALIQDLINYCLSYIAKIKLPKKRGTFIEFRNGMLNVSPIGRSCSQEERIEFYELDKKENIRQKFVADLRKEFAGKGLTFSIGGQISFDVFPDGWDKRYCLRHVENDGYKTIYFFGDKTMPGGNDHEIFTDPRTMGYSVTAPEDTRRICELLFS
# Sequence of Large T antigen (P03070 whole entry): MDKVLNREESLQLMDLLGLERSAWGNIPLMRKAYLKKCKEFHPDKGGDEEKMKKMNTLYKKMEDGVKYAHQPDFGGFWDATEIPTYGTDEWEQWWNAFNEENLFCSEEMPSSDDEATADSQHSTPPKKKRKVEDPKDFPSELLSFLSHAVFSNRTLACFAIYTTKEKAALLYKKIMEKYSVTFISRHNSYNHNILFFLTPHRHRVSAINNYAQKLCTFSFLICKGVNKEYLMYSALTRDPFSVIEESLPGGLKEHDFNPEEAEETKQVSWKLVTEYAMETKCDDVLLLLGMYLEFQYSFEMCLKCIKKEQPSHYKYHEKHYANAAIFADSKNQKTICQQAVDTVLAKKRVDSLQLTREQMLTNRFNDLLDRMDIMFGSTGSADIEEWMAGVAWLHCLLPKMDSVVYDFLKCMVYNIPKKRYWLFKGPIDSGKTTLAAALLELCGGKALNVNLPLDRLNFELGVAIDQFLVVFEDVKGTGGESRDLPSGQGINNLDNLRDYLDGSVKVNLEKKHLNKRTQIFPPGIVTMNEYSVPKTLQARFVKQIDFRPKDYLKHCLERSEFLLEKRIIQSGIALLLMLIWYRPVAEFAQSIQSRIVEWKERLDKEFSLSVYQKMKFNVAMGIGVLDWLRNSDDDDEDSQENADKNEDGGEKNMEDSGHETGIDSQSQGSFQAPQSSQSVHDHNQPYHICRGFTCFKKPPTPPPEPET
smiles,measurement,setting,value
CCOc1ccc(N(C)c2ccc(/C=C3/SC(=S)NC3=O)cc2)cc1,IC50,[1],0.701 µM (active)
same,EC50,[2],5.43 µM (active)
same,EC50,Streptokinase A,> 150 µM (not active)
same,EC50,Streptococcus,20.7 µM (active)
CCSC1=N/C(=C\c2ccc(OC)cc2)C(=O)N1,EC50,[3],3.35 µM (active)
O=c1c2ccccc2sn1-c1nccs1,IC50,Large T antigen,12.9 µM (active)
same,IC50,[4],42.5 µM (active)
same,IC50,[5],2.65 µM (active)
same,IC50,[6],11.3 µM (active)
same,IC50,Phosphomannomutase 2,> 100 µM (inactive)
same,IC50,[7],13.5 µM (active)
same,CC50,Vero,> 25 µM (active)
O=C(Nc1cccc2ncccc12)c1ccc(Cl)cc1,IC50,[8],> 100 µM (inactive)
same,IC50,[9],9.09 µM (active)
same,IC50,[10],6.11 µM (active)
same,IC50,[11],2.79 µM (active)
Cc1ccc(S(=O)(=O)Nc2cc3c(C(=O)Nc4ccccc4)c(C)oc3c3ccccc23)cc1,IC50,Protein Rev,> 75.4 µM (not active)
same,IC50,[12],0.725 µM (active)
Cc1c(C(=O)N(C)C2CCCCC2)sc2ncnc(N3CCN(c4ccccc4)CC3)c12,EC50,[13],5.84 µM (active)
